From patent publication US20100203634A1, “Inhibition of stem cell differentiation, enhancement of proliferation and selective induction of apoptosis by Wnt factors” (DeltaCell B.V., priority 2003, published 2010)
Entries after “also recorded” stand apart in the source; their conditions may differ.

How the values were obtained:
[1] = system: mesenchyme and epithelium of fetal lung explants; assay: TUNEL assay on sections of fetal lung explants; assay type: cell-based, mouse
Method: The induction of apoptosis was detected using the “In Situ Cell Death Detection Kit,” of Roche (Cat. No. 11 684 817 001) according to the manufacturer's instructions.
(§1) To further analyze the effect of Wnt3a upon apoptosis and proliferation, lung explants were cultured for four days in the presence of 0, 4, 20, 100, 250, 500, 750 and 1000 ng/ml. In order to identify whether after Wnt3A treatment cells are viable and active, proliferating BrdU was added to the culture medium, which is incorporated in newly synthesized DNA of active proliferating cells, two hours before the fixation of the lung explants. […] To better investigate this effect, histological sections were analyzed with the TUNEL assay, which detects fragmented DNA present in apoptotic cells (material and methods).

[2] = system: mesenchyme and epithelium of fetal lung explants; assay: PCNA immunohistochemistry (proliferation) on lung explants; assay type: cell-based, mouse
Method: Detection of the PCNA epitopes was carried out by treating the sections with di-aminobenzidine (DAB) for 15 minutes.
The antibody against PCNA was purchased from Zymed Laboratories Inc. (cat nr. 18-0110). The secondary conjugate used was from Jackson Laboratories, Inc. (catalog nr. 115-056-062).

[3] = system: mesenchyme and epithelium of fetal lung explants; assay: BrdU incorporation immunostaining on lung explants; assay type: cell-based, mouse; settings: four days
Method: (§2) The primary antibodies used for the immunohistochemical detection was for beta-catenin; anti beta-catenin IgG, mAb, clone 14 from BD-Transduction Laboratories, for tubulin-beta mAb clone TBN05 (Tub2.1) from Neomarkers, for BrdU; anti-Bromodeoxyuridine (BrdU), mAb clone ZBU30 from Zymed Laboratories Inc.
as §1
In order to identify whether the epithelial cells were still actively proliferating after four days of Wnt3a treatment, the histological sections were immunostained for incorporated BrdU (FIG. 6).

[4] = system: fetal lung explants (E12.5); assay: Eight-day fetal lung explant culture, histology and tubulin-IV immunostaining (final lung differentiation); assay type: cell-based, mouse
Method: FIG. 7: The effect of Wnt3A on the final lung differentiation. The lung explants were cultured for eight days in the presence of 0 ng/ml (Panels A and B), 10 ng/ml (Panel C), 50 ng/ml (Panel D), 250 ng/ml (Panel E) and 500 ng/ml Wnt3A (Panel F). After embedding, histological sections were stained with a tubulin-IV antibody to mark ciliated bronchial epithelium. In addition, the sections were counterstained with Haematoxylin and Alcian Blue, which stained the mucus secreted from the bronchial epithelium and the cartilage associated with the tracheal epithelium.
as §2
To further determine the effect of Wnt3A upon the development and differentiation of the lung over time, fetal lung explants of isolated E12.5 were cultured with 0, 10, 50, 250, and 500 ng/ml Wnt3A for eight days. Two hours before the fixation of the lung explants, BrdU was added to the culture medium, which is incorporated in newly synthesized DNA of active proliferating cells. After the different time points, the lung explants were processed for histological analysis and immuno staining of marker genes.

[5] = system: beta-catenin; assay: Nuclear translocation of beta-catenin, immunohistology of fetal lung explants; assay type: cell-based, mouse
Method: FIG. 8: Nuclear translocation of beta-catenin by Wnt3A in fetal lung explants. The translocation of beta-catenin was determined using immunohistological analysis of histological sections from fetal lung explants (E12.5), cultured for two days in the presence of Wnt3a at a concentration of 0 ng/ml (Panel A); 10 ng/ml (Panel B); 50 ng/ml (Panel C); 250 ng/ml (Panel D); 500 ng/ml (Panel E) and 1000 ng/ml (Panel F).
as §2
In order to determine whether Wnt3A actually elevates the Wnt-signaling pathway in these explants, histological sections were stained for beta-catenin, the intracellular factor, which, together with members of the high mobility group (HMG) of transcription factors such as TCF1 and LEF, transducer the Wnt signal to the nucleus.

[6] = system: Wnt-signaling pathway in primary lung fibroblasts isolated from a E12.5 fetal lung; assay: TopFlash/FopFlash reporter assay, primary fetal lung cells; assay type: cell-based, mouse; settings: 0.4 to 500 ng/ml, 20 hours
Method: (§3) Primary mouse fibroblasts isolated from E12.5 lung explants, the human epithelial lung carcinoma cell line A549 cells (ATCC CCL-185), the human epithelial lung adenocarcinoma cell line Calu-3 (ATCC_HTB-55) and the normal human fetal lung fibroblast cell line HFL-1 cells (ATCC—153) were cultured in 96-well plates and transfected with the TopFlash and FopFlash reporter constructs using lipofectamine 2000 according to the manufacturer's instructions. As an internal control for transfection efficiency, a constitutive renilla luciferase reporter (Promega) was cotransfected. The cells were transfected with the above-mentioned reporter constructs and simultaneously treated with different concentrations of Wnt3A for 20 hours, after which the cells were lysed and luciferase expression was measured using a Berthold luminometer for two seconds (V. Korinek et al., Mol. Cell. Biol. 18:1248-1256, 1998). The Lipofectamine 2000 transfection reagent was purchased from Invitrogen Life Technologies. The wild-type beta-catenin/TCF reporter plasmid (TOPFLASH) and mutated reporter plasmid (FOPFLASH) were obtained from Upstate Biotechnology (NY, USA).
The dissociated lungs were co-transfected with the TopFlash reporter construct that is activated by nuclear beta-catenin transcription complexes. […]

[7] = system: Wnt-signaling pathway in normal human fetal lung fibroblast cell line HFL-1; assay: TopFlash/FopFlash reporter assay, HFL-1; assay type: cell-based; settings: HFL-1, 20 hours
Method: as §3, with “The Lipofectamine 2000 transfection reagent was purchased from Invitrogen Life Technologies. The wild-type beta-catenin/TCF reporter plasmid (TOPFLASH) and mutated reporter plasmid (FOPFLASH) were obtained from Upstate Biotechnology (NY, USA).” left out
In order to analyze if Wnt3A is able to activate the Wnt signal-transduction pathway in humans, we stimulated three different cell lines from human origin with Wnt3A and measured the response with the TopFlash/FopFlash reporter assay. The three human lung-derived cell lines analyzed were the lung epithelial carcinoma cell line A549 (FIG. 9B), the normal lung fibroblast line HFL-1 (FIG. 9C), and the epithelial adenocarcinoma cell line calu-3 (FIG. 9D).

With Wnt3a the TUNEL-positive epithelial cells ([1]; 1000 ng/ml, four days) was “almost none of the epithelial cells were TUNEL positive”, the “apoptosis in the mesenchyme (TUNEL)” value ([1]; 1000 ng/ml, four days) was “massive induction of apoptosis in the mesenchyme” and the “mesenchymal cells picnotic and TUNEL positive” value ([1]; 1000 ng/ml, four days) was ~100%. The TUNEL-positive epithelial cells ([1]; 1000 ng/ml, four days, listed as Wnt3A) was “unaffected epithelium”, the “concentration at which TUNEL-positive (apoptotic) cells increase” value ([1]; four days of culture) was “above 100 ng/ml” and the “PCNA staining in the bronchial epithelium” value ([2]; 500 ng/ml, two days) was “marked overall increase in the intensity and frequency of PCNA staining; also recorded: elevated PCNA staining”. For the same substance, the “PCNA staining (proliferation) of epithelium and mesenchyme” value ([2]; 1000 ng/ml, five days) was “the epithelium was still proliferating whereas most of the mesenchymal cells were inactive or dead; also recorded: strong reduction in proliferation of the mesenchyme versus the epithelium”, the PCNA staining ([2]; 1000 ng/ml, two days) was “reduces the PCNA staining below the control situation” and the PCNA staining ([2]; 2000 and 4000 ng/ml, two days) was “completely negative”. The “concentration at which proliferation is absent / inhibited” value ([2]; lung explants) was “above 2000 ng/ml”, the “BrdU-positive (active proliferating) cells” value (“BrdU-positive” for short) ([3]; 500 ng/ml and lower) was “both the mesenchyme and epithelium contained many BrdU-positive” and the “BrdU-positive” value ([3]; 750 ng/ml) was “intermediate effect”. The “BrdU-positive” value ([3]; 1000 ng/ml) was “almost all BrdU-positive cells were present in the epithelium”, the “effect on lung development (morphology)” value ([4]; 10 ng/ml, up to eight days) was “profound effects on lung development” and the “flattening of the primordial epithelium to the type-I cell” value ([4]; 250 ng/ml, eight days) was “almost completely suppressed”. For the same substance, the branching ([4]; 500 ng/ml, after one day) was “inhibitory effect upon branching”, the branching ([4]; 500 ng/ml, eight days) was “still severely suppressed” and the “differentiation of distal epithelium (alveolar and bronchiolar compartments)” value ([4]; 500 ng/ml, eight days) was “completely inhibited”. The “proximal structures (tubulin-IV, Haematoxylin and Alcian Blue)” value ([4]; 500 ng/ml, eight days) was “consist completely of proximal structures; also recorded: abundance of bronchial epithelium, mucus and cartilage”, the “alveolarization of the distal epithelium / flattened epithelium (alveolar-type-I cells)” value ([4]; 10 to 250 ng/ml (to 500 ng/ml in FIG. 7), eight days) was “decreasing alveolarization of the distal epithelium; also recorded: loss of flattened epithelium (alveolar-type-I cells) with increasing dosage” and the nuclear beta-catenin ([5]; 10-1000 ng/ml, within the first two days, mesenchymal cells around lung buds) was “dosage-dependent increase in nuclear beta-catenin”. For the same substance, the nuclear beta-catenin ([5]; 250 and 500 ng/ml, two days) was “maximal; also recorded: strong induction of nuclear beta-catenin”, the nuclear beta-catenin ([5]; four- and eight-day cultures) was “had disappeared” and the “TopFlash versus FopFlash reporter response” value [6] was “clear Wnt3A dosage-dependent response”. For the same substance, the TopFlash/FopFlash reporter response [7] was “respond to Wnt3A in a dosage-dependent manner; also recorded: strong induction of the Wnt-signaling pathway”.
